ChEMBL document CHEMBL4020792, “Sialidase inhibitory activity of diarylnonanoid and neolignan compounds extracted from the seeds of Myristica fragrans” (Bioorg Med Chem Lett, 2017)

Key:
Sialidase A [1] = target: T1, Sialidase A (Streptococcus pneumoniae, UniProt P62575); test: Noncompetitive inhibition of Streptococcus pneumoniae sialidase NanA using 4-methylumbelliferyl-alpha-D-N-acetylneuraminic acid as substrate after 60 mins by Lineweaver-Burk plot/Dixon plot analysis
[2] = target: Sialidase A (Streptococcus pneumoniae) (UniProt P62575); test: (§1) Inhibition of Streptococcus pneumoniae sialidase NanA using 4-methylumbelliferyl-alpha-D-N-acetylneuraminic acid as substrate after 60 mins by FRET assay
Sialidase A [3] = target: T1, Sialidase A; test: as §1
Streptococcus pneumoniae [4] = test: (§2) Inhibition of Streptococcus pneumoniae sialidase NanB using 4-methylumbelliferyl-alpha-D-N-acetylneuraminic acid as substrate after 60 mins by FRET assay
[5] = as §2
Streptococcus pneumoniae [6] = test: (§3) Inhibition of Streptococcus pneumoniae sialidase NanC using 4-methylumbelliferyl-alpha-D-N-acetylneuraminic acid as substrate after 60 mins by FRET assay
[7] = as §3
[8] = Noncompetitive inhibition of Streptococcus pneumoniae sialidase NanC using 4-methylumbelliferyl-alpha-D-N-acetylneuraminic acid as substrate after 60 mins by Lineweaver-Burk plot/Dixon plot analysis
[9] = Noncompetitive inhibition of Streptococcus pneumoniae sialidase NanB using 4-methylumbelliferyl-alpha-D-N-acetylneuraminic acid as substrate after 60 mins by Lineweaver-Burk plot/Dixon plot analysis
Sialidase A [10] = target: T1, Sialidase A; test: Competitive inhibition of Streptococcus pneumoniae sialidase NanA using 4-methylumbelliferyl-alpha-D-N-acetylneuraminic acid as substrate after 60 mins by Lineweaver-Burk plot/Dixon plot analysis

Chain of Sialidase A (Streptococcus pneumoniae) (P62575 whole entry): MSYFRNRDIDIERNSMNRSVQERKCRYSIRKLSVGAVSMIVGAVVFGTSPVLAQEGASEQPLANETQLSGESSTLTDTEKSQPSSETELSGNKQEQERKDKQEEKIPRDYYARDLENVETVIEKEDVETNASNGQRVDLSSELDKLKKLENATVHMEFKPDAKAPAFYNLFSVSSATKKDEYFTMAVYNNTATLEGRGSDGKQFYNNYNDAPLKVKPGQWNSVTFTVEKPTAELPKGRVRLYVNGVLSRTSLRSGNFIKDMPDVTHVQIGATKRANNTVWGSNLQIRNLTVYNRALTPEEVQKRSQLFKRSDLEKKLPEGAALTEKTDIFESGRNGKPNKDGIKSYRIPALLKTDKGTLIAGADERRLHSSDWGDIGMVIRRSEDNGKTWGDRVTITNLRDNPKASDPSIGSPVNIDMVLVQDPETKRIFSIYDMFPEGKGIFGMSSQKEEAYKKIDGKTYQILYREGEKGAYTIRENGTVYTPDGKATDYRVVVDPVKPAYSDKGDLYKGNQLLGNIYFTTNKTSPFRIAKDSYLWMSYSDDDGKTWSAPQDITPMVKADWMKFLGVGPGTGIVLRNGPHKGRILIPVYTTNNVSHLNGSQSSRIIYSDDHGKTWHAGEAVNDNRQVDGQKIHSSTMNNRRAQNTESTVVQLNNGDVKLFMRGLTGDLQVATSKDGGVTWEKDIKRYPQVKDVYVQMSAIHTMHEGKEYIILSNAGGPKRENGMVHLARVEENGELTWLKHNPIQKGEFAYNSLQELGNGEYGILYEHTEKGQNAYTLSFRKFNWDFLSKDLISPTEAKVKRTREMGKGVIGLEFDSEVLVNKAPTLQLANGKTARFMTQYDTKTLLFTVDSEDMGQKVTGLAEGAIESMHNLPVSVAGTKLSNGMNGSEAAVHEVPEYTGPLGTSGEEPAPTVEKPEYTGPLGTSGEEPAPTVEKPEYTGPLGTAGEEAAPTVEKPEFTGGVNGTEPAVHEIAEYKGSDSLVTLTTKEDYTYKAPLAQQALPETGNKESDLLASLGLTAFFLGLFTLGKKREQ
T1 sequence (P62575 whole entry): as above

| Compound | Ki (Sialidase A [1]) | inhibition [2] | IC50 (Sialidase A [3]) | inhibition (Streptococcus pneumoniae [4]) | IC50 ([5]; read-out: IC50) | inhibition (Streptococcus pneumoniae [6]) | IC50 ([7]; read-out: IC50) | Ki [8] | Ki [9] | IC50 [5] | IC50 [7] | Ki (Sialidase A [10]) |
| --- | --- | --- | --- | --- | --- | --- | --- | --- | --- | --- | --- | --- |
| COc1cc([C@H]2O[C@@H](c3ccc(O)c(OC)c3)[C@@H](C)[C@@H]2C)ccc1O | 21.9 µM | Dose-dependent effect | 37.2 µM | Dose-dependent effect | 331 µM | Dose-dependent effect | 274 µM |  |  |  |  |  |
| C=CCc1cc(O)c(OC)c(O)c1 | 4.9 µM | Dose-dependent effect | 2 µM | Dose-dependent effect | 27.1 µM | Dose-dependent effect | 60.5 µM | 91.8 µM | 74 µM |  |  |  |
| COc1cc([C@@H](O)[C@@H](C)Oc2c(OC)cc(/C=C/CO)cc2OC)ccc1O | 3 µM | Dose-dependent effect | 1.6 µM | Dose-dependent effect | 20.9 µM | Dose-dependent effect | 24.6 µM | 37.8 µM | 39.2 µM |  |  |  |
| C=CCc1cc(OC)c(O[C@@H](C)[C@H](O)c2ccc(O)c(OC)c2)c(OC)c1 | 15.1 µM | Dose-dependent effect | 25.6 µM | Dose-dependent effect | 229 µM | Dose-dependent effect | 103 µM |  |  |  |  |  |
| C/C=C/c1cc(OC)c2c(c1)[C@H](C)[C@@H](c1cc(OC)c3c(c1)OCO3)O2 | 47.5 µM | Dose-dependent effect | 44.2 µM | Dose-dependent effect | 92.1 µM | Dose-dependent effect | 317 µM |  |  |  |  |  |
| C=CCc1cc(OC)c(O[C@H](C)[C@H](OC(C)=O)c2ccc(OC)c(OC)c2)c(OC)c1 |  |  | 295 µM |  |  |  |  |  |  | Not Active | Not Active |  |
| C/C=C/c1cc(OC)c2c(c1)[C@H](C)[C@@H](c1ccc3c(c1)OCO3)O2 [(-)-LICARIN B] | 1.3 µM | Dose-dependent effect | 1.5 µM | Dose-dependent effect | 14 µM | Dose-dependent effect | 30.7 µM | 12.1 µM | 13.5 µM |  |  |  |
| C/C=C/c1cc(OC)c2c(c1)[C@H](C)[C@@H](c1ccc(O)c(OC)c1)O2 [LICARIN A] | 9.4 µM | Dose-dependent effect | 7.9 µM | Dose-dependent effect | 95.8 µM | Dose-dependent effect | 113 µM |  |  |  |  |  |
| O=C(CCCCCCCCc1ccc(O)cc1)c1c(O)cccc1O [MALABARICONE B] |  | Dose-dependent effect | 0.4 µM | Dose-dependent effect | 5.7 µM | Dose-dependent effect | 14.3 µM | 5.8 µM | 5.6 µM |  |  | 0.5 µM |
| O=C(CCCCCCCCc1ccc(O)c(O)c1)c1c(O)cccc1O [MALABARICONE C] |  | Dose-dependent effect | 0.3 µM | Dose-dependent effect | 3.6 µM | Dose-dependent effect | 2.9 µM | 2.1 µM | 3 µM |  |  | 0.1 µM |
| C=CCc1cc(OC)c(O)c(OC)c1 [METHOXYEUGENOL] | 4.2 µM | Dose-dependent effect | 6.9 µM | Dose-dependent effect | 77.6 µM | Dose-dependent effect | 33.6 µM | 30.2 µM |  |  |  |  |
